The target of one assay is T1, TRPA1 (Homo sapiens, UniProt O75762).
T1 construct: expressed in transfected cells; host or cells: HEK293
As to the kind of experiment: Calcium imaging of HEK293 cells transiently expressing WT TRPA1. The format is cell-based. Particulars: for inhibition of TRPA1 channel activity: applied after 4-HNE, 1 μM exemestane, 100 μM JQ-1, 10 μM sulforaphane; for activation of TRPA1: exemestane 1-100 μm, JQ-1 as high as 100 μM, 10 μM sulforaphane. As for the experimental part: Calcium Imaging and Analysis Calcium imaging and analysis was performed as previously described (See Meixiong, J. et al. Elife 8, (2019)). Briefly, cells were imaged in calcium imaging buffer (CIB; 10 mM HEPES, 1.2 mM NaHCO3, 130 mM NaCl, 3 mM KCl, 2.5 mM CaCl2, 0.6 mM MgCl2, 20 mM glucose, and 20 mM sucrose at pH 7.4 and 290-300 mOsm). To monitor changes in intracellular [Ca^2+]([Ca^2+]i), cells were loaded with either 1 μM Fura 2-AM (HEK293 cells) or 1 μM Fluo 4-AM (trigeminal neurons) for 30 min in the dark at 37° C. in CIB just prior to imaging. With Fura 2-AM, emission at 510 nm was monitored following excitation at both 340 nm and 380 nm. With Fluo 4-AM, emission at 520 nm was monitored following excitation at 488 nm. Cells were identified as positively responding if [Ca^2+]i rose by 15% compared to baseline. Damaged, detached, high-baseline, and motion-activated cells were excluded from analysis.
HEK293 cells were plated on poly-D-lysine-coated coverslips and transiently transfected with the vector backbone or constructs encoding WT or mutant TRPA1. Unless otherwise noted, cells were imaged for 30 s to establish a baseline before compounds were added. Vehicle was first applied for 30 s, after which 100 μM iodoacetamide, 1 mM H2O2, or 100 μM 4-HNE was applied. CSF from cases and controls was diluted into calcium imaging buffer 1:50 prior to each trial. 50 μM of the non-selective TRP channel inhibitor ruthenium red was applied at the end of every imaging trial.

The test system of assay [1] is constrictive mouse model of trigeminal neuralgia. As to the kind of experiment: Cold allodynia (ice-cold acetone) after constriction of the maxillary nerve. The format is in vivo. Particulars: for cold allodynia (ice-cold acetone): WT mice, i.p. daily for two days before surgery and daily after behavior testing, sulforaphane, exemestane, letrozole 10 mg/kg, JQ-1 40 mg/kg, ascorbate 100 mg/kg, vs vehicle. As for the experimental part: Constriction of the Maxillary Nerve Constriction of the maxillary division of trigeminal nerve was performed as previously described (See Benedetti, A., et al., Biochimica Et Biophysica Acta Bba—Lipids Lipid Metabolism 620, 281-296 (1980) and Vos, B., et al J Neurosci 14, 2708-2723 (1994)). The procedure was performed under direct visualization and control with a surgical microscope. Mice were first anesthetized with ketamine (100 mg/kg, i.p.) and xylazine (12.5 mg/kg, i.p.) and monitored by pinching the skin between the toes with forceps and monitoring for withdrawal. Mice were restrained with adhesive tape to a sterilized polystyrene board. Upon sufficient anesthesia, the scalp was shaved and an anterior to posterior skin incision was made at the midline to expose the nasal and maxillary bones. The maxillary nerve was exposed and carefully dissected free from the surrounding connective tissue. The distal end of the maxillary nerve was then loosely constricted using 8-0 silk sutures as a ligature. The sutures were tied using a slip knot followed by a normal knot, after which any remaining suture was cut free. The incision was then closed with a 4-0 silk suture. In the sham procedure, the left maxillary nerve was exposed but not constricted. Mice were monitored and rehydrated until fully recovered from anesthesia.
Pharmacologic Treatments Mice were dosed with either sulforaphane (10 mg/kg, i.p.), exemestane (10 mg/kg, i.p.), letrozole (10 mg/kg, i.p.), (+)-JQ-1 (40 mg/kg, i.p.), (−)-JQ-1 (40 mg/kg, i.p.), or ascorbate (100 mg/kg, i.p.) as indicated below. Mice were first dosed daily for two days before surgery and again daily just after behavior testing. For local exemestane treatment, exemestane (5 μL, 25 μg total) was applied directly to the maxillary nerve. Mice received a single dose during surgery. Mice were dosed with AM-0902 (30 mg/kg, p.o.). Mice were treated with AM-0902 were dosed 30 min prior to behavior testing. Mice were dosed with tamoxifen (75 mg/kg, i.p.). Mice were dosed once every 24 hrs over 5 consecutive days. Behavioral and molecular tests were only performed 7 or more days after the final tamoxifen injection.
Cold Allodynia Cold allodynia was assessed in C57BL/6J, TRPA1^+/+, TRPA1^−/−, Keap1(f/f), and Keap1(f/f)/CMV-CreER mice using ice-cold acetone as previously outlined (See Yoon, C., et al., Pain 59, 369-376 (1994)). Animals were placed individually in transparent plastic boxes and allowed to acclimatize to the environment for at least 30 min before testing. After habituation, 20 μl of cold acetone was applied to the ligated vibrissal pad skin surface. Cold allodynia was measured as the average time spent wiping the region in a 60 s period, with a maximum of 5 seconds between bouts of wiping. Allodynia was measured three times with 10 min between intervals. Changes in cold allodynia were considered relative to sham- or vehicle-treated animal controls. Behavior was assessed concomitantly or in a blocked manner with consideration for both genotype and treatment.

Another assay has as its system NRF2. Nature of the assay: NRF2/ARE Luciferase Reporter Assay (HEK293 stable cell line). The class given is cell-based, human. Particulars: 6 hrs exposure to varying concentrations, relative to vehicle, normalized to total protein. On the procedure: NRF2/ARE Luciferase Reporter Assay NRF2 activity was monitored with a reporter cell line in which changes in NRF2 activity are coupled to the expression of firefly luciferase (NRF2/ARE Luciferase Reporter HEK293 Stable Cell Line). Luciferase activity was quantified with the Luciferase Assay System as per the manufacturer's instructions. Briefly, cells were plated at 125,000 cells/well in a 24-well plate. The following day, cells were treated with either vehicle or varying doses of sulforaphane, exemestane, or JQ-1 for 6 hours. Cells were then lysed in passive lysis buffer (Promega E1941) supplemented with protease inhibitors (Sigma). Lysates were then cleared at 16,000 g for 15 minutes at 4° C. 15 μL of each lysate was mixed with 5 μL of luciferase assay substrate (Promega). Total light was measured using a luminometer with a 10 second integration time with a delay of 2 seconds. Luciferase measurements were normalized to total protein and reported as normalized to the vehicle condition.
(Reporter assays use an easily measured gene product as a stand-in for the process of interest.)

The subject of assay [2] is constrictive mouse model of trigeminal neuralgia. Nature of the assay: Mechanical allodynia (Von Frey filament) after constriction of the maxillary nerve. The format is in vivo. Particulars: i.p. daily, sulforaphane 10 mg/kg; for mechanical allodynia (analgesic effect): NRF2−/− mice, exemestane 10 mg/kg, JQ-1 40 mg/kg.

SMILES strings stand for the structures. Entries after “also recorded” stand apart in the source; their conditions may differ.

T1 sequence (O75762 whole entry): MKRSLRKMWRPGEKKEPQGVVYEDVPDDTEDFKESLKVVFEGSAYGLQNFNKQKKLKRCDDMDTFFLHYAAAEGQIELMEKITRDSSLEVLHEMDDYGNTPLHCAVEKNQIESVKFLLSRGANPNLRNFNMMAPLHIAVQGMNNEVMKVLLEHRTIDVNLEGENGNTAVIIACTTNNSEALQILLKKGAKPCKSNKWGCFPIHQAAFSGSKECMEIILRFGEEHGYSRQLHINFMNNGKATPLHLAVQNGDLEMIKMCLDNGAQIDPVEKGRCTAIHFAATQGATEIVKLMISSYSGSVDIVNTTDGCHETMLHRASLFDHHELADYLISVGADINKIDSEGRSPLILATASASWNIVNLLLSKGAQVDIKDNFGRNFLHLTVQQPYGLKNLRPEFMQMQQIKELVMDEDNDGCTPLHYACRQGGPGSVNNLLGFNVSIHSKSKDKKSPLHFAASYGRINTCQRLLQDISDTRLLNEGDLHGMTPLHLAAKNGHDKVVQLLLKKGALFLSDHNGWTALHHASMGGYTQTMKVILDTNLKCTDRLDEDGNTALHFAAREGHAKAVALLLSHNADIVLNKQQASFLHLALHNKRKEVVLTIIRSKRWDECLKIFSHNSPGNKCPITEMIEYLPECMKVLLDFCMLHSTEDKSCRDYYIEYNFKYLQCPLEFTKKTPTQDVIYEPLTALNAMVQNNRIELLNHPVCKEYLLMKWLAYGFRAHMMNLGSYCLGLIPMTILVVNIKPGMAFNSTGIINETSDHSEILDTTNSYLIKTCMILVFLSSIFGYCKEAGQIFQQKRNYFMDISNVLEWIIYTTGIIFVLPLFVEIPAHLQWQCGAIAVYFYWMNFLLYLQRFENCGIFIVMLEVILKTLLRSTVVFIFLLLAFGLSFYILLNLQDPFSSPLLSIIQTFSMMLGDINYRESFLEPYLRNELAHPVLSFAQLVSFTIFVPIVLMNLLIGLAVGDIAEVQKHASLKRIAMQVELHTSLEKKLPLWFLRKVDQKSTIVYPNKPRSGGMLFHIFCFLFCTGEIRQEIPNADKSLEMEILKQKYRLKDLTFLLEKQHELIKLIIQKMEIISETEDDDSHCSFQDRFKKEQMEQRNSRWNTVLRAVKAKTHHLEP

As for `Cc1sc2c(c1C)C(c1ccc(Cl)cc1)=N[C@@H](CC(=O)OC(C)(C)C)c1nnc(C)n1-2` [JQ-1, (S)-tert-butyl 2-(4-(4-chlorophenyl)-2,3,9-trimethyl-6H-thieno[3,2-f][1,2,4]triazolo[4,3-a][1,4]diazepin-6-yl)acetate], at TRPA1, the “inhibition of TRPA1 channel activity” value is given as “Neither sulforaphane, exemestane, nor JQ-1 inhibited TRPA1 channel activity” and the “activation of TRPA1” value is listed as “do not activate TRPA1”. Also, the “cold allodynia (ice-cold acetone)” value in assay [1] is listed as “much less sensitive”. Moreover, the “cold allodynia (ice-cold acetone)” value in assay [1] (listed as (+)-JQ-1) is “lowered”. Besides, the “luciferase expression in the NRF2 reporter line” value (“luciferase expression” for short) in the assay on NRF2 was “did not stimulate luciferase expression”. Also, the “mechanical allodynia (analgesic effect)” value in assay [2] is on record as “lowers”.

As for `C=C1C[C@@H]2[C@H](CC[C@]3(C)C(=O)CC[C@@H]23)[C@@]2(C)C=CC(=O)C=C12` [exemestane, 6-methylenandrosta-1,4-diene-3,17-dione], at TRPA1, the “inhibition of TRPA1 channel activity” value is “Neither sulforaphane, exemestane, nor JQ-1 inhibited TRPA1 channel activity” and the “activation of TRPA1” value is recorded as “did not activate TRPA1”. In addition, the “cold allodynia (ice-cold acetone)” value in assay [1] is reported as “much less sensitive; also recorded: lowered”. Besides, the cold allodynia result in assay [1] (single local treatment, exemestane 25 μg/site applied directly to the maxillary nerve during surgery) is given as “lessened”. Further, in the assay on NRF2, the “luciferase expression” value is recorded as “similarly increased luciferase expression”. In assay [2], the “mechanical allodynia (analgesic effect)” value is listed as “lose their analgesic effects”.

Regarding `C[S+]([O-])CCCCN=C=S` (stereo not drawn) [sulforaphane, 1-isothiocyanato-4-(methanesulfinyl)butane], on TRPA1, the “inhibition of TRPA1 channel activity” value is listed as “Neither sulforaphane, exemestane, nor JQ-1 inhibited TRPA1 channel activity” and the “activation of TRPA1” value was “Neither sulforaphane nor JQ-1 activate TRPA1”. Besides, the “cold allodynia (ice-cold acetone)” value in assay [1] is “less sensitive”. In the assay on NRF2, the “luciferase expression” value was “dose-dependently increased luciferase expression”. In assay [2], the “mechanical allodynia (analgesic effect)” value is recorded as “lose their analgesic effects”. The mechanical allodynia entry in assay [2] (TRPA1−/− mice, compared with genetic deletion of TRPA1 alone) is “did not lower”.

The values above are taken from US20250064846A1, “TREATMENT AND PREVENTION OF TRIGEMINAL NEURALGIA” (THE JOHNS HOPKINS UNIVERSITY, priority 2022, published 2025).
